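A five-concentration, 48-hour dose response in 96-well plates underlies each endpoint, interpolated linearly between surrounding concentrations. GI50 marks 50% less growth.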 The source made the active and inactive calls. Cut-off read from the data, not from the text of the source: active = GI50 up to about 1.1 µM and inactive = higher.

Test systems include MCF7; DU-145; SK-OV-3; HL-60; NCI-H23; RPMI-8226; 786-0; SNB-75; UACC-62; Malme-3M; MDA-MB-435; K562; Hs-578T; NCI-H460; HCC 2998; HOP-62; HCT-116; OVCAR-3; RXF 393; LOX IMVI.
What all share (experiment): DTP human tumour cell line panel, 48 h

By GI50 is commonly meant the concentration at which growth is held to half of that of the control. For `Cc1cccc(NS(=O)(=O)c2ccc3c(c2)OCCOCCOCCOCCO3)c1`, the GI50 in the assay with MCF7, in the assay on DU-145, with SK-OV-3, in the assay on HL-60, with NCI-H23 and in the assay on RPMI-8226 was > 100 µM (inactive) throughout. The GI50 in the assay on 786-0 is > 100 µM (inactive); with SNB-75, 51.5 µM (inactive); in the assay on UACC-62, > 100 µM (inactive); in the assay with Malme-3M it was > 100 µM (inactive); in the assay on MDA-MB-435, > 100 µM (inactive); in the assay with K562 it was > 100 µM (inactive). Further, the GI50 in the assay with Hs-578T, in the assay with NCI-H460, in the assay on HCC 2998, in the assay with HOP-62 and in the assay on HCT-116 was > 100 µM (inactive) each time.

For `C/C(Nc1ccc(Cl)cc1Cl)=C1/CCOC1=O`, the GI50 was > 100 µM (inactive) in the assay with MCF7; > 100 µM (inactive) with DU-145; 56.5 µM (inactive) in the assay on HL-60; 59.3 µM (inactive) with NCI-H23; > 100 µM (inactive) in the assay with RPMI-8226; 40.4 µM (inactive) in the assay on 786-0. Besides, the GI50 with OVCAR-3 is > 100 µM (inactive); in the assay on RXF 393, 13.5 µM (inactive); in the assay on SNB-75, 36.9 µM (inactive); in the assay with UACC-62 it was 63.7 µM (inactive); in the assay with Malme-3M it was > 100 µM (inactive); in the assay with LOX IMVI, > 100 µM (inactive). Besides, the GI50 was > 100 µM (inactive) with MDA-MB-435; > 100 µM (inactive) with K562; 33.6 µM (inactive) in the assay on Hs-578T; 89.5 µM (inactive) in the assay on NCI-H460; > 100 µM (inactive) with HCC 2998; 27 µM (inactive) in the assay on HOP-62. In addition, in the assay with HCT-116, the GI50 is > 100 µM (inactive).

As to `COCc1nc2c(OC)c(-c3nc4ccc(N5CCN(C)CC5)cc4[nH]3)cc(OC)c2[nH]1`, the GI50 in the assay on MCF7 is 35.6 µM (inactive); with DU-145, 31.3 µM (inactive); with SK-OV-3 it was 52.1 µM (inactive); with HL-60, 33.6 µM (inactive); in the assay on NCI-H23, 83.4 µM (inactive); with RPMI-8226 it was 32.1 µM (inactive). The GI50 in the assay on 786-0 is 40.1 µM (inactive); with OVCAR-3 it was 29.7 µM (inactive); with RXF 393, 14.3 µM (inactive); in the assay on SNB-75, 4.3 µM (inactive); with UACC-62, 80.7 µM (inactive); in the assay with Malme-3M, 16.9 µM (inactive). Also, the GI50 was 18.7 µM (inactive) in the assay on LOX IMVI; 33 µM (inactive) in the assay on MDA-MB-435; 38.8 µM (inactive) in the assay with K562; 69.8 µM (inactive) in the assay on Hs-578T; 36.7 µM (inactive) with NCI-H460; 32.4 µM (inactive) with HOP-62. For the same compound, the GI50 with HCT-116 was 30.8 µM (inactive).

For `COc1ccc2nc3c([N+](=O)[O-])ccc4c3c(c2c1)N=CN4CCN(C)C`, the GI50 was 3.3 µM (inactive) in the assay with MCF7; 4.09 µM (inactive) with DU-145; 9.27 µM (inactive) in the assay on SK-OV-3; 0.266 µM (active) in the assay on HL-60; 7.55 µM (inactive) in the assay with NCI-H23; 2.24 µM (inactive) in the assay with RPMI-8226. For the same compound, the GI50 in the assay on 786-0 is 3.61 µM (inactive); in the assay on OVCAR-3, 4.55 µM (inactive); in the assay on SNB-75, 2.9 µM (inactive); in the assay with UACC-62 it was 8.71 µM (inactive); with Malme-3M, 3.92 µM (inactive); in the assay with LOX IMVI, 3.38 µM (inactive). In addition, the GI50 with MDA-MB-435 was 6.67 µM (inactive); in the assay with K562, 0.726 µM (active); in the assay with Hs-578T it was 6.73 µM (inactive); in the assay on NCI-H460 it was 2.96 µM (inactive); in the assay with HCC 2998, 3.83 µM (inactive); with HOP-62, 3.17 µM (inactive). Also, the GI50 in the assay with HCT-116 was 2.44 µM (inactive).

`C/C(=C\c1ccc(Cl)c(Cl)c1)[N+](=O)[O-]`: the GI50 in the assay with MCF7 was 0.433 µM (active); with DU-145 it was 1.63 µM (inactive); in the assay with HL-60, 1.52 µM (inactive); in the assay on NCI-H23, 2.26 µM (inactive); with 786-0, 0.579 µM (active); with OVCAR-3, 1.65 µM (inactive). Moreover, the GI50 in the assay with SNB-75 was 4.2 µM (inactive); in the assay on UACC-62, 2.38 µM (inactive); in the assay on Malme-3M, 2.08 µM (inactive); with LOX IMVI, 0.314 µM (active); with MDA-MB-435, 2.23 µM (inactive); in the assay on K562 it was 1.55 µM (inactive). Further, the GI50 in the assay on Hs-578T was 3.24 µM (inactive); in the assay on NCI-H460, 20.7 µM (inactive); with HCC 2998, 4.36 µM (inactive); in the assay with HOP-62 it was 2.5 µM (inactive); in the assay on HCT-116 it was 2.77 µM (inactive).

As for `COc1cc(CC2C(=O)OCC2Cc2ccc(OC)c(OC)c2)ccc1O` (stereo unspecified), the GI50 in the assay with MCF7 is > 100 µM (inactive); in the assay with DU-145, > 100 µM (inactive); with SK-OV-3, > 100 µM (inactive); with HL-60, > 100 µM (inactive); in the assay on NCI-H23 it was 10.9 µM (inactive); with RPMI-8226, > 100 µM (inactive). Further, the GI50 in the assay on 786-0 is > 100 µM (inactive); in the assay with OVCAR-3, > 91.8 µM (inactive); with RXF 393, > 100 µM (inactive); in the assay with SNB-75, > 60.5 µM (inactive); with UACC-62 it was > 100 µM (inactive); in the assay with Malme-3M, > 100 µM (inactive). The GI50 with LOX IMVI is 30.8 µM (inactive); in the assay with MDA-MB-435, > 100 µM (inactive); with Hs-578T it was > 100 µM (inactive); in the assay on NCI-H460, > 100 µM (inactive); in the assay on HOP-62 it was > 100 µM (inactive); in the assay with HCT-116, > 100 µM (inactive).

With `N#Cc1c(C#N)c(-c2ccccc2)n(-c2ccccc2)c1N`, the GI50 in the assay on MCF7 is > 100 µM (inactive); with DU-145, 85.7 µM (inactive); in the assay on SK-OV-3, 83.6 µM (inactive); with HL-60, > 100 µM (inactive); with NCI-H23, 80.7 µM (inactive); with RPMI-8226, 5.87 µM (inactive). The GI50 with 786-0 is 82.6 µM (inactive); with OVCAR-3 it was > 100 µM (inactive); with RXF 393, 41.6 µM (inactive); in the assay with SNB-75, 1.27 µM (inactive); with UACC-62, 69.5 µM (inactive); in the assay on Malme-3M, > 100 µM (inactive). For the same compound, the GI50 with LOX IMVI is > 100 µM (inactive); with MDA-MB-435 it was > 100 µM (inactive); in the assay with K562 it was 19.7 µM (inactive); in the assay with Hs-578T it was 21 µM (inactive); with HOP-62, 84.9 µM (inactive); in the assay on HCT-116, 5.51 µM (inactive).

On to `O=C1C=CC2(C=C1)O[C@H](COCc1ccccc1)[C@@H](COCc1ccccc1)O2`, for which the concentration for 50% growth inhibition (GI50) was 0.313 µM (active) with MCF7; 2.7 µM (inactive) in the assay with DU-145; 15.7 µM (inactive) in the assay with SK-OV-3; 2.59 µM (inactive) with HL-60; 1.77 µM (inactive) with NCI-H23; 0.42 µM (active) in the assay with RPMI-8226. The GI50 with 786-0 is 0.627 µM (active); with OVCAR-3, 2.37 µM (inactive); with RXF 393, 0.2 µM (active); in the assay with SNB-75, 4.54 µM (inactive); with UACC-62, 1.88 µM (inactive); with Malme-3M, 2.54 µM (inactive). The GI50 in the assay with LOX IMVI is 1.56 µM (inactive); in the assay with MDA-MB-435 it was 2.27 µM (inactive); in the assay on K562, 2.25 µM (inactive); in the assay with Hs-578T, 1.75 µM (inactive); with NCI-H460, 18.8 µM (inactive); in the assay on HOP-62 it was 2.23 µM (inactive). The concentration for 50% growth inhibition (GI50) in the assay with HCT-116 was 0.235 µM (active).

Source of the values: ChEMBL document CHEMBL1201862, “PubChem BioAssay data set” (2004).
